Results taken from ChEMBL document CHEMBL1145368, “Directed molecular screening for RecA ATPase inhibitors” (Bioorg Med Chem Lett, 2007).
The source made the active and inactive calls. No cut-off for these calls is given here.

Key:
[1] = (§1) Inhibition of Escherichia coli RecA by ADP-linked fluorescent ATPase assay
Escherichia coli [2] = experiment: Inhibition of RecA-mediated DNA strand exchange reaction assessed as abrogation of nicked circular dsDNA formation at 100 uM
Escherichia coli [3] = experiment: as §1

| SMILES | IC50 [1] [nM] | Activity (Escherichia coli [2]) | Activity (Escherichia coli [3]) |
| --- | --- | --- | --- |
| Cc1ccc(C(=O)Nc2ccc(S(=O)(=O)O)c3cc(S(=O)(=O)O)cc(S(=O)(=O)O)c23)cc1NC(=O)c1cccc(NC(=O)Nc2cccc(C(=O)Nc3cc(C(=O)Nc4ccc(S(=O)(=O)O)c5cc(S(=O)(=O)O)cc(S(=O)(=O)O)c45)ccc3C)c2)c1 [SURAMIN] | 2000 | Active | – |
| COc1cc(/C=C/C(=O)CC(=O)/C=C/c2ccc(O)c(OC)c2)ccc1O | – | – | inactive |
| Nc1c(/N=N/c2ccc(-c3ccc(/N=N/c4cc(S(=O)(=O)O)c5ccccc5c4N)cc3)cc2)cc(S(=O)(=O)O)c2ccccc12 | – | – | Active |
| O=S(=O)(O)c1cccc2c(-c3ccc(Nc4ccccc4)c4c(S(=O)(=O)O)cccc34)ccc(Nc3ccccc3)c12 | – | – | Active |
